Experimental data published in paper PMC5826973 (Frontiers in Pharmacology, 2018).

Columns and labels:
SK-HEP1 HCC cells = test: MTT-based cell proliferation assay, SK-HEP1; parameters: species or system human
Description: (§1) Human HCC cells SK-HEP1 and QGY; breast cancer cells HCC1954, BT474, and MDA-MB468; ovarian cancer cells SKOV3; and prostate cancer cells PC3 and LNCaP were purchased from the Cell Bank of Chinese Academy of Sciences (Shanghai, China), and cultured in T75 flasks with complete DMEM or RPMI 1640 medium (GIBCO, Invitrogen, Gaithersburg, CA, United States) supplemented with 10% FBS (Hyclone, New Zealand), and 1% penicillin/streptomycin (Solarbio, Beijing, China) at 37°C in a humidified atmosphere containing 5% CO2.
(§2) Cell proliferation was determined using methylthiazolyl diphenyl-tetrazolium bromide assay (MTT; Sigma–Aldrich). The cells were seeded onto 96-well plates in a total volume of 150 μl at a density of 3.5 × 10^4 cells/well. […] To avoid the effect of the solvent, the concentration of DMSO was less than 0.1% (v/v) in all experiments. After incubation at 37°C for 48 h, 10 μl of MTT solution (5 mg/ml) was added and continued to incubate for 4 h. Following removal of medium containing MTT, 200 μl of DMSO was added to dissolve the formazan crystals formed by live cells. Solution absorbance was measured at 490 nm with an absorbance microplate reader (BioTek, Winooski, VT, United States). The assay was repeated six times. The IC50 value was determined from plot of % viability against the dose of compounds added.

QGY HCC cells = test: MTT-based cell proliferation assay, QGY; parameters: species or system human
Description: as §1, §2

CyPJ = target: T1, CyPJ (Homo sapiens, UniProt Q9H2H8); test: Surface plasmon resonance (SPR) binding assay; settings: Biacore 3000, recombinant human CyPJ immobilized on CM5 chip, 20°C, compounds 0.3–10 μM
T1 construct: made in house
T1 sequence (Q9H2H8 1-161): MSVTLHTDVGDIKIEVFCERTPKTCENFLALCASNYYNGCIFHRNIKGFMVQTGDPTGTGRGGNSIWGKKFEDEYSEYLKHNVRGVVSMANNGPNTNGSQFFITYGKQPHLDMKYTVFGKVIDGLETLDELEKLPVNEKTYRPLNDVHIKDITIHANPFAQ
Description: The binding affinity of the selected compounds to CyPJ was measured by SPR with a Biacore 3000 instrument (Biacore AB Corporation, Uppsala, Sweden) as previously described ([Guo et al., 2005]; [Chen et al., 2007]). Briefly, recombinant human CyPJ protein was immobilized on an activated sensor chip via amine coupling. CyPJ protein (10 μM) was coupled to a CM5 sensor chip surface (a carboxymethylated dextran surface; CM5 chip from Biacore, Inc., Piscataway, NJ, United States) in a buffer containing 10 mM sodium acetate (pH 4.0) using standard amine coupling chemistry according to the manufacturer’s instructions. Flow cell 1 (FC-1) was used as the control surface and flow cell 2 (FC-2) contained 9000 resonance units (RU) of CyPJ (1 RU corresponds to 1 pg of protein per mm^2). The buffer stream was passed through FC-1 and FC-2 of the bi-channel at a flow rate of 40 μl/min. Compounds to be tested were purchased from SPECS (Netherlands). All chemicals were of the highest purity available, as certified by the vendor. All compounds were stocked in 100% dimethylsulfoxide at 10 mM and diluted at graded concentrations (0.3–10 μM) with HBS-EP buffer (0.01 M HEPES buffer, pH 7.4, containing 0.15 M NaCl, 3.4 mM EDTA, and 0.005% surfactant P20) containing 1% dimethylsulfoxide. The temperature of the instrument was set to 20°C, and the flow rate was set to 40 μl/min. Each compound (50 μl) was injected sequentially. NaOH (50 mM) was used to regenerate the surface of the CM5 chip. The 1:1 Langmuir binding model was used to determine the equilibrium dissociation constant (KD). For fast interactions, the steady-state model was used to determine KD values. All experiments were carried out in triplicate.

CyPJ PPIase = target: T2, CyPJ PPIase (Homo sapiens, UniProt Q9H2H8); test: α-chymotrypsin-coupled PPIase assay; format: biochemical; settings: for IC50: read-out: Compound IC50 for PPIase; for Compound IC50 for PPIase: CyPJ PPIase, substrate Suc-AAPF-pNA, 8°C, – = no inhibition detectable
T2 construct: made in house
T2 sequence (Q9H2H8 1-161): T1 sequence (Q9H2H8 1-161)
Description: We used an α-chymotrypsin-coupled PPIase assay, where the substrate succinyl-Ala-Ala-Pro-Phe-p-nitroanilide (Suc-AAPF-pNA) is first converted to the trans conformation by PPIase, and can then be digested by α-chymotrypsin to release chromogenic p-nitroanilide; the latter compound is then monitored with a spectrometer. Briefly, the assay was performed under 8°C in a 100 μl system. The Suc-AAPF-pNA was dissolved in the […] containing 480 mM of LiCl (working concentration: 3.0 mM). The α-chymotrypsin was dissolved in 1 mM HCl (working concentration: […]). When assayed, each test compound was diluted in 94 μl of assay buffer (50 mM HEPES, 100 mM NaCl; pH 8.0 at 0°C), and then mixed with 2 μl of CyPJ solution (5 μM). […] Three independent experiments were performed for each test compound and the respective half maximal inhibitory concentration (IC50) was calculated with OriginPro 7.5 software (OriginLab, Northampton, MA, United States).
The inhibitory effect of each compounds was determined with a standard spectrophotometric method in chymotrypsin-coupled assays with different concentrations of peptide substrate. The rate constants for the cis–trans conversion were evaluated by fitting the data to the integrated first-order rate equation through nonlinear least-square analysis.

[1] = Blood serum level after intraperitoneal administration; format: in vivo; settings: blood serum (unpublished data)
[2] = test system: xenograft mouse tumor model; test: In vivo xenograft mouse tumor model; settings: xenograft mouse tumor model (unpublished data)
[3] = Homo sapiens, SK-HEP1, Table 2, 48 h
[4] = Table 4, ZX-J-19 derivatives, 48 h

Structure (SMILES)	Kd (CyPJ) [µM]	IC50 (CyPJ PPIase) [µM]	other results
O=c1[nH]cc(F)c(=O)[nH]1 [Compound 5-FU, 5-fluorouracil, reference compound]	–	–	IC50 (SK-HEP1 HCC cells; [3]): 177.24 ± 0.065 µM; IC50 (QGY HCC cells; Homo sapiens, Table 2, 48 h): 238.53 ± 0.035 µM
CCOC(=O)c1ccc(NC(=O)c2cc(-c3ccc(C)c(C)c3)nc3ccccc23)cc1 [ZX-J-8]	14.5	10.3 ± 0.442	–
COc1ccc(NC(=O)c2ccc(COc3ccccc3Br)o2)c(OC)c1 [ZX-J-9]	1.29	8.54 ± 0.965	–
COc1ccc(CCNC(=O)c2ccc(C(=O)NCCc3ccc(OC)c(OC)c3)nc2)cc1OC [ZX-J-10]	0.8	–	Compound IC50 for PPIase (CyPJ PPIase): no inhibition
C/C(=N/NC(=O)c1ccc(COc2ccc3c(c2)CCC3)o1)c1ccc(NC(=O)C2CCCC2)cc1 [ZX-J-11]	0.0988	19.95 ± 0.025	–
CCCCOc1cccc(-c2cc(C(=O)Nc3ccc4c(c3)OCCO4)c3ccccc3n2)c1 [ZX-J-12]	118	12.95 ± 0.054	–
CC(C)OC(=O)c1ccc(NC(=O)c2ccc(COc3ccccc3Cl)o2)cc1 [ZX-J-13]	0.516	12.63 ± 0.068	–
COc1cc(NC(=O)COc2ccc3ccccc3c2)ccc1NC(=O)c1cc2ccccc2o1 [ZX-J-15]	0.661	–	Compound IC50 for PPIase (CyPJ PPIase): no inhibition
CCCOC(=O)c1ccc(N2C(=O)c3ccc(C(=O)OC(C)C(=O)c4ccc(C)cc4)cc3C2=O)cc1 (stereo not shown) [ZX-J-16]	3.41	18.5 ± 0.727	–
COc1cc(/C=N/NC(=O)c2cc3c(ccc4ccccc43)o2)ccc1OCc1ccccc1F [ZX-J-17]	0.0435	–	Compound IC50 for PPIase (CyPJ PPIase): no inhibition
Cc1cc(NC(=O)C(=O)NCCN2CCN(C(=O)c3ccccc3F)CC2)ccc1Br [ZX-J-18]	0.242	–	Compound IC50 for PPIase (CyPJ PPIase): no inhibition
CN(C)C(=O)Nc1ccc2nc(-c3ccco3)c(-c3ccco3)nc2c1 [ZX-J-19]	16.7	15.949 ± 0.012	IC50 (SK-HEP1 HCC cells; [3]): 40.44 ± 0.033 µM; IC50 (QGY HCC cells; Homo sapiens, Table 2, 48 h): 52.438 ± 0.019 µM; time until absorbed and accumulated in blood serum [1]: ≤ 10 min; time until declined and diminished to control levels [1]: 8 h; antitumor activity in vivo [2]: poor antitumor activity
CC(C)(C)C(=O)Nc1ccc2nc(-c3ccccc3)c(-c3ccccc3)nc2c1 [ZX-J-19b]	–	–	IC50 (SK-HEP1 HCC cells; [4]): 21.6 µM; IC50 (QGY HCC cells; [4]): 26 µM
O=C(Nc1ccc2nc(-c3ccccc3)c(-c3ccccc3)nc2c1)c1ccc([N+](=O)[O-])cc1 [ZX-J-19c]	–	–	IC50 (QGY HCC cells; [4]): 37.6 µM
O=C(CCl)Nc1ccc2nc(-c3ccccc3)c(-c3ccccc3)nc2c1 [ZX-J-19d]	–	–	IC50 (SK-HEP1 HCC cells; [4]): 11.3 µM; IC50 (QGY HCC cells; [4]): 17.9 µM
